Measurements taken from patent US9351818B2, “Process for the synchronization of ovulation for timed breeding without heat detection” (priority 2003, dated 2016).

Columns and labels:
postpartum sows = experiment: Single timed deslorelin injection 96 hours post-weaning with single timed insemination, no estrus detection (Example 3); type: in vivo, swine; settings: 50 mcg in SAIB at 96 hours post-weaning; single insemination 28+/-2 hours later
Procedure: Approximately 170 postpartum sows were randomly divided into two equal groups comprised of controls and treated. Following weaning, the controls were detected for estrus and bred following the normal standard operating procedures for the farms on which they resided. The treated sows received a 50 mcg dose of deslorelin in SAIB at 96 hours post-weaning and were bred with a single insemination 28+/−2 hours later with no regard to estrus detection. The sows were examined for pregnancy by ultrasound at 21 days and slaughtered around 28 days post breeding. The entire reproductive tract was removed and corpora lutea and embryos were counted.

mature postpartum sows = experiment: Intravulvar deslorelin at estrus detection with AI in mature postpartum sows (Example 2); type: in vivo, swine; settings: 50 μg deslorelin acetate intravulvar at first estrus detection, then AI again if in estrus the next day
Procedure: Sows were assigned randomly in blocks of two to either control or to be injected intravulvar with 50 mcg of deslorelin in SAIB at the time of estrus detection for sows first detected in estrus in the a.m. and 12 hours later for those first detected in estrus in the p.m. Treated animals were bred AI upon detected estrus and again 24 hours later if still in estrus. Controls received a saline injection on first detected estrus behavior estrus detection and were bred according to the farm's normal procedures.

SMILES: CCNC(=O)[C@@H]1CCCN1C(=O)[C@H](CCCN=C(N)N)NC(=O)[C@H](CC(C)C)NC(=O)[C@@H](Cc1c[nH]c2ccccc12)NC(=O)[C@H](Cc1ccc(O)cc1)NC(=O)[C@H](CO)NC(=O)[C@H](Cc1c[nH]c2ccccc12)NC(=O)[C@H](Cc1cnc[nH]1)NC(=O)[C@@H]1CCC(=O)N1 [Deslorelin, deslorelin]
- Embryo Survival (postpartum sows): 64%
- Pregnancy Rate (mature postpartum sows): 91%
